Measurements reported in patent US20170368082A1, “FORMULATIONS OF BRINCIDOFOVIR” (priority 2016, published 2017).
Like-named read-outs stand apart in the source and are kept apart here.

Assays:
[1] = 28-day study toxicokinetics of brincidofovir and CDV in plasma; assay type: in vivo, Sprague-Dawley CD rats; settings: plasma brincidofovir; for AUC(0-t) / Cmax: iv
Procedure: Blood samples were obtained for the determination of plasma concentrations of brincidofovir and the brincidofovir metabolite, cidofovir.
Approximately 0.40 mL of whole blood was obtained via the tail vein from each animal at each time point. Animals were not fasted prior to blood collection. Blood was collected into tubes containing K2EDTA anticoagulant and placed on wet ice in an upright position. Plasma was separated by centrifugation (for 10 minutes at approximately 2000 g, at approximately 2-8° C.). Approximately 0.150 mL of plasma was transferred into a single cryotube appropriately labeled as to study number, animal number, time point, date of sampling and sample type. Remaining plasma was transferred into a second cryotube and retained as a backup sample. Plasma was obtained and frozen at approximately −80±10° C. within approximately 2 hours after collection of each blood sample until analysis. Animals were euthanized (CO2 inhalation) after the final blood collection.
Bioanalytical samples were analyzed using a validated liquid chromatographic-triple quadruple mass spectrometric (LC-MS/MS) assay at Pyxant Labs.
Upon receipt of the plasma concentration data, noncompartmental toxicokinetic analysis was performed by Nuventra, Inc. Durham, N.C.

[2] = Stability and confirmation analysis of stock and dose formulations; assay type: physicochemical
Procedure: Brincidofovir injectable liquid stock formulation was prepared to 15 mg/mL brincidofovir, compounded from stock solutions inclusive of three (3) steps: (1) 2× sodium phosphate buffer solution (400 mM, pH=8.0) was prepared; (2) 1.0 N sodium hydroxide solution was purchased; brincidofovir injectable liquid stock formulation (15 mg/mL brincidofovir, 200 mM sodium phosphate, pH=8.0) from solid brincidofovir, 1.0 N sodium hydroxide solution, 2× sodium phosphate buffer solution and WFI (water for injection) was prepared.
The brincidofovir injectable liquid stock formulation is stable for 28 days under refrigerated conditions (2 to 8° C.). Brincidofovir injectable liquid stock formulation was diluted with 5% dextrose to yield the desired dose concentration.
The brincidofovir stock solution of 15.0 mg/mL was stable for 24 hours when stored at room temperature (nominally 20° C.) and for 8, 14 and 28 days when stored at 2 to 8° C.
Two samples (5 mL each) were taken on the day of preparation from the middle region of each dosing formulation (including control) prepared for each week. One sample was analyzed, in duplicate, for dose confirmation analysis and one sample was retained refrigerated (2 to 8° C.) (Due to initial results outside the study acceptance plan criteria (±10% of nominal), the Group 2 retained samples were re-analyzed for Weeks 1 and 2).
Analysis of preliminary mixes confirmed that the test item was stable in the vehicle for at least 24 hours at room temperature (nominally 20° C.) and for at least 8 days at 2 to 8° C. (under storage conditions used in this study). Analyses conducted during the treatment period confirmed that with the exception of the Day 1, 1 mg/mL (Group 2) formulation, dose solutions of appropriate concentration were administered. The Day 1, 1 mg/mL dose solution was 86.7% of nominal. Without wishing to be bound by theory, it was concluded that due to interactions at the meniscus, the volume collected for dose formulation analysis may have lowered the analysis results. The volume collected for analysis was increased for subsequent weekly preparations and confirmed to be of appropriate concentration.

[3] = both sexes, Sprague-Dawley CD, rat, in vivo, 4 mg/kg, Day 1, 4 mg/kg, combined male and female, Mean
[4] = both sexes, Sprague-Dawley CD, rat, in vivo, 4 mg/kg, Day 1, 4 mg/kg, combined male and female, Median
[5] = both sexes, Sprague-Dawley CD, rat, in vivo, 15 mg/kg, Day 1, 15 mg/kg, combined male and female, Mean
[6] = both sexes, Sprague-Dawley CD, rat, in vivo, 15 mg/kg, Day 1, 15 mg/kg, combined male and female, Median
[7] = Day 29, 1 mg/kg, combined male and female rats, mean
[8] = Day 29, 4 mg/kg, combined male and female rats, mean
[9] = Day 29, 15 mg/kg, combined male and female rats, mean
[10] = Day 1, 1 mg/kg, combined male and female, Median
[11] = Day 1, 4 mg/kg, combined male and female, Mean
[12] = Day 1, 4 mg/kg, combined male and female, Median
[13] = Day 1, 15 mg/kg, combined male and female, Mean
[14] = Day 1, 15 mg/kg, combined male and female, Median

## CCCCCCCCCCCCCCCCOCCCOP(=O)(O)CO[C@H](CO)Cn1ccc(N)nc1=O [Brincidofovir]
[1]; both sexes, Sprague-Dawley CD, rat, in vivo, 1 mg/kg, Day 1, 1 mg/kg, combined male and female, Mean, read-out: Clast
  concentration at 2 h: 209 ng/mL
[1]; both sexes, Sprague-Dawley CD, rat, in vivo, 4 mg/kg, Day 29, 4 mg/kg, combined male and female rats, mean, read-out: Clast
  concentration at 8 hr: 2.06 ng/mL
[1]; both sexes, Sprague-Dawley CD, rat, in vivo, 4 mg/kg, Day 1, 4 mg/kg, combined male and female, Mean, read-out: Clast
  concentration at 8 h: 2.2 ng/mL
[1]; both sexes, Sprague-Dawley CD, rat, in vivo, 4 mg/kg, Day 1, 4 mg/kg, combined male and female, Median, read-out: Clast
  concentration at 8 h: 2.31 ng/mL
[1]; both sexes, Sprague-Dawley CD, rat, in vivo, 15 mg/kg, Day 29, 15 mg/kg, combined male and female rats, mean, read-out: Clast
  concentration at 8 hr: 10.9 ng/mL
[1]; both sexes, Sprague-Dawley CD, rat, in vivo, 15 mg/kg, Day 1, 15 mg/kg, combined male and female, Mean, read-out: Clast
  concentration at 8 h: 9.68 ng/mL
[1]; both sexes, Sprague-Dawley CD, rat, in vivo, 15 mg/kg, Day 1, 15 mg/kg, combined male and female, Median, read-out: Clast
  concentration at 8 h: 10.3 ng/mL
[1]; both sexes, Sprague-Dawley CD, rat, in vivo, 1 mg/kg, Day 29, 1 mg/kg, combined male and female rats, mean, calculated using only 2 quantifiable data points
  AUC(0-t): 410 ng·h/mL
[1]; both sexes, Sprague-Dawley CD, rat, in vivo, 1 mg/kg, Day 1, 1 mg/kg, combined male and female, Mean
  Cmax: 219 ng/mL
[1]; both sexes, Sprague-Dawley CD, rat, in vivo, 1 mg/kg, Day 1, 1 mg/kg, combined male and female, Mean, only 2 quantifiable data points
  AUC(0-t): 319 ng·h/mL
[1]; both sexes, Sprague-Dawley CD, rat, in vivo, 1 mg/kg, Day 1, 1 mg/kg, combined male and female, Median
  Cmax: 210 ng/mL
[1]; both sexes, Sprague-Dawley CD, rat, in vivo, 1 mg/kg, Day 1, 1 mg/kg, combined male and female, Median, only 2 quantifiable data points
  AUC(0-t): 305 ng·h/mL
[1]; both sexes, Sprague-Dawley CD, rat, in vivo, 4 mg/kg, Day 29, 4 mg/kg, combined male and female rats, mean
  AUC(0-t): 2760 ng·h/mL
[1]; [3]
  AUC(0-t): 2220 ng·h/mL
  Cmax: 1010 ng/mL
[1]; [4]
  AUC(0-t): 2320 ng·h/mL
  Cmax: 1000 ng/mL
[1]; both sexes, Sprague-Dawley CD, rat, in vivo, 15 mg/kg, Day 29, 15 mg/kg, combined male and female rats, mean
  AUC(0-t): 9890 ng·h/mL
[1]; [5]
  AUC(0-t): 8820 ng·h/mL
  Cmax: 3800 ng/mL
[1]; [6]
  AUC(0-t): 8780 ng·h/mL
  Cmax: 3760 ng/mL
[1]; [7]
  AUClast/Dose: 410 (hr*ng/mL)/(mg/kg)
  Cmax/Dose: 298 kg·ng/mL/mg
[1]; Day 29, 1 mg/kg, combined male and female rats, median
  Tlast: 2.00 h
[1]; [8]
  AUClast/Dose: 690 (hr*ng/mL)/(mg/kg)
  Cmax/Dose: 301 kg·ng/mL/mg
[1]; Day 29, 4 mg/kg, combined male and female rats, median
  Tlast: 8.00 h
[1]; [9]
  AUClast/Dose: 660 (hr*ng/mL)/(mg/kg)
  Cmax/Dose: 300 kg·ng/mL/mg
[1]; Day 29, 15 mg/kg, combined male and female rats, median
  Tlast: 8.00 h
[1]; Day 1, 1 mg/kg, combined male and female, Mean
  Cmax/Dose: 219 kg·ng/mL/mg
[1]; Day 1, 1 mg/kg, combined male and female, Mean, only 2 quantifiable data points
  AUClast/Dose: 319 (hr*ng/mL)/(mg/kg)
[1]; [10]
  Clast: 206 ng/mL
  Cmax/Dose: 210 kg·ng/mL/mg
  Tlast: 2.00 h
[1]; Day 1, 1 mg/kg, combined male and female, Median, only 2 quantifiable data points
  AUClast/Dose: 305 (hr*ng/mL)/(mg/kg)
[1]; [11]
  AUClast/Dose: 554 (hr*ng/mL)/(mg/kg)
  Cmax/Dose: 252 kg·ng/mL/mg
[1]; [12]
  AUClast/Dose: 579 (hr*ng/mL)/(mg/kg)
  Cmax/Dose: 250 kg·ng/mL/mg
  Tlast: 8.00 h
[1]; [13]
  AUClast/Dose: 588 (hr*ng/mL)/(mg/kg)
  Cmax/Dose: 254 kg·ng/mL/mg
[1]; [14]
  AUClast/Dose: 585 (hr*ng/mL)/(mg/kg)
  Cmax/Dose: 251 kg·ng/mL/mg
  Tlast: 8.00 h
[2]; 0.05 mg/mL and 2.0 mg/mL, 2 to 8 °C
  Stable for (refrigerated): at least 8 days
[2]; 0.05 mg/mL and 2.0 mg/mL, room temperature
  Stable for (room temperature): at least 24 hours
[2]; dose formulation Day 1, Group 2, nominal 1 (ppm) OR (mg/mL)
  ANALYTICAL CONCENTRATION (% of Nominal): 86.7 % of Nominal
[2]; dose formulation Day 1, Group 2 Back-up, nominal 1 (ppm) OR (mg/mL)
  ANALYTICAL CONCENTRATION (% of Nominal): 76.9 % of Nominal
[2]; dose formulation Day 1, Group 2 Repeat Preparation, nominal 1 (ppm) OR (mg/mL)
  ANALYTICAL CONCENTRATION (% of Nominal): 75.5 % of Nominal
[2]; dose formulation Day 1, Group 3, nominal 4 (ppm) OR (mg/mL)
  ANALYTICAL CONCENTRATION (% of Nominal): 95.7 % of Nominal
[2]; dose formulation Day 1, Group 4, nominal 15 (ppm) OR (mg/mL)
  ANALYTICAL CONCENTRATION (% of Nominal): 100.7 % of Nominal
[2]; dose formulation Week 2, Group 2, nominal 1 (ppm) OR (mg/mL)
  ANALYTICAL CONCENTRATION (% of Nominal): 90.1 % of Nominal
[2]; dose formulation Week 2, Group 2 Back-up, nominal 1 (ppm) OR (mg/mL)
  ANALYTICAL CONCENTRATION (% of Nominal): 86.8 % of Nominal
[2]; dose formulation Week 2, Group 3, nominal 4 (ppm) OR (mg/mL)
  ANALYTICAL CONCENTRATION (% of Nominal): 95.4 % of Nominal
[2]; dose formulation Week 2, Group 4, nominal 15 (ppm) OR (mg/mL)
  ANALYTICAL CONCENTRATION (% of Nominal): 102.9 % of Nominal
[2]; dose formulation Week 3, Group 2, nominal 1 (ppm) OR (mg/mL)
  ANALYTICAL CONCENTRATION (% of Nominal): 93.2 % of Nominal
[2]; dose formulation Week 3, Group 3, nominal 4 (ppm) OR (mg/mL)
  ANALYTICAL CONCENTRATION (% of Nominal): 94.8 % of Nominal
[2]; dose formulation Week 3, Group 4, nominal 15 (ppm) OR (mg/mL)
  ANALYTICAL CONCENTRATION (% of Nominal): 100.2 % of Nominal
[2]; dose formulation Week 4, Group 2, nominal 1 (ppm) OR (mg/mL)
  ANALYTICAL CONCENTRATION (% of Nominal): 92.8 % of Nominal
[2]; dose formulation Week 4, Group 3, nominal 4 (ppm) OR (mg/mL)
  ANALYTICAL CONCENTRATION (% of Nominal): 96.9 % of Nominal
[2]; dose formulation Week 4, Group 4, nominal 15 (ppm) OR (mg/mL)
  ANALYTICAL CONCENTRATION (% of Nominal): 101.0 % of Nominal
[2]; dose formulation Week 5, Group 2, nominal 1 (ppm) OR (mg/mL)
  ANALYTICAL CONCENTRATION (% of Nominal): 94.9 % of Nominal
[2]; dose formulation Week 5, Group 3, nominal 4 (ppm) OR (mg/mL)
  ANALYTICAL CONCENTRATION (% of Nominal): 97.7 % of Nominal
[2]; dose formulation Week 5, Group 4, nominal 15 (ppm) OR (mg/mL)
  ANALYTICAL CONCENTRATION (% of Nominal): 101.1 % of Nominal
